Test results reported in ChEMBL document CHEMBL1147661, “The first potent inhibitor of mammalian group X secreted phospholipase A2: elucidation of sites for enhanced binding” (J Med Chem, 2006).

Key:
Phospholipase A2 [1] = target: Phospholipase A2 (Homo sapiens, UniProt P04054); test: Inhibition of human recombinant sPLA2 G1B
Phospholipase A2 [2] = target: Phospholipase A2 (Mus musculus, UniProt Q9Z0Y2); test: Inhibition of mouse recombinant sPLA2 G1B
[3] = target: T1, Phospholipase A2, membrane associated (Homo sapiens, UniProt P14555); test: Inhibition of human recombinant sPLA2 G2A
T1 sequence (P14555 whole entry): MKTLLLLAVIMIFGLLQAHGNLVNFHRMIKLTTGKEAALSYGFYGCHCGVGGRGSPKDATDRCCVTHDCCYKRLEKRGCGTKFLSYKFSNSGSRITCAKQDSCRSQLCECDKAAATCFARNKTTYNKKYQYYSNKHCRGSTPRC

[4] = target: T2, Group IIE secretory phospholipase A2 (Homo sapiens, UniProt Q9NZK7); test: Inhibition of human recombinant sPLA2 G2E
T2 sequence (Q9NZK7 whole entry): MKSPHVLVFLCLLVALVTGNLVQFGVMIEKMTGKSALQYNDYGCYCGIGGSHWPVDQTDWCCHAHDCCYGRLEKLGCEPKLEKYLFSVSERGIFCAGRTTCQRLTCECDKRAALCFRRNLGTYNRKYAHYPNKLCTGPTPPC

[5] = target: T3, Group IIE secretory phospholipase A2 (Mus musculus, UniProt Q9QUL3); test: Inhibition of mouse recombinant sPLA2 G2E
T3 sequence (Q9QUL3 whole entry): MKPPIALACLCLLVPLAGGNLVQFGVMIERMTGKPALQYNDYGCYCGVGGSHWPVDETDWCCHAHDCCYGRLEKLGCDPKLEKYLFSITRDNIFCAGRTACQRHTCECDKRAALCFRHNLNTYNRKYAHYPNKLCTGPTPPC

[6] = target: T4, Group 10 secretory phospholipase A2 (Homo sapiens, UniProt O15496); test: Inhibition of human recombinant sPLA2 G10
T4 sequence (O15496 whole entry): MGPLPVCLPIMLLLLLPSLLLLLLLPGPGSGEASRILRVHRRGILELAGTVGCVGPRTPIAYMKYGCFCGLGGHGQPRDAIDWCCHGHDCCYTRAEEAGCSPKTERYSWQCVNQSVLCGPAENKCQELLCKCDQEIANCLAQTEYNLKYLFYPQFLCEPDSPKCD

[7] = target: T5, Group 10 secretory phospholipase A2 (Mus musculus, UniProt Q9QXX3); test: Inhibition of mouse recombinant sPLA2 G10
T5 sequence (Q9QXX3 whole entry): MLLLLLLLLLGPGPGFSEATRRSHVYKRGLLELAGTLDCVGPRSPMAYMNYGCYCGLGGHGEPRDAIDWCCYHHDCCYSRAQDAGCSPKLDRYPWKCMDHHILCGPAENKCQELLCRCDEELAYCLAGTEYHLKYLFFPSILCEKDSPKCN

[8] = target: T6, Phospholipase A2, membrane associated (Mus musculus, UniProt P31482); test: Inhibition of mouse recombinant sPLA2 G2A
T6 sequence (P31482 whole entry): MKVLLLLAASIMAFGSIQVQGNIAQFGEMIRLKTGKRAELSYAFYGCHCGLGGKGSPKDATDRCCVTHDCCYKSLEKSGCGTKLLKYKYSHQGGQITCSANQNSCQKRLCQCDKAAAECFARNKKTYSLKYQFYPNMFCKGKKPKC

Phospholipase A2 group V [9] = target: T7, Phospholipase A2 group V (Homo sapiens, UniProt P39877); test: Inhibition of human recombinant sPLA2 G5
T7 sequence (P39877 whole entry): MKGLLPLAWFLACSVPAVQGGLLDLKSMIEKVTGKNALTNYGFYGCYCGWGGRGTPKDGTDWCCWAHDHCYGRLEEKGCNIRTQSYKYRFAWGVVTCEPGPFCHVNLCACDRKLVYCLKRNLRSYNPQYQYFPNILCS

Phospholipase A2 group V [10] = target: T8, Phospholipase A2 group V (Mus musculus, UniProt P97391); test: Inhibition of mouse recombinant sPLA2 G5
T8 sequence (P97391 whole entry): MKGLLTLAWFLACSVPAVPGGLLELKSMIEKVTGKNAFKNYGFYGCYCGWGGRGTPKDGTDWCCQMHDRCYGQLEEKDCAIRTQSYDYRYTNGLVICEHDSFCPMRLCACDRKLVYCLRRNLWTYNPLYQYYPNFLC

Phospholipase A2 (Homo sapiens, UniProt P04054), sequence (P04054 whole entry): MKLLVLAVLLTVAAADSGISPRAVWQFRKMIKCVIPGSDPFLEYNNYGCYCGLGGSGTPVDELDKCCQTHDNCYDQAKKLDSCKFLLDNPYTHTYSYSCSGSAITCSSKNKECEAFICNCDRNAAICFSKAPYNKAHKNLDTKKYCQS
Phospholipase A2 (Mus musculus, UniProt Q9Z0Y2), sequence (Q9Z0Y2 whole entry): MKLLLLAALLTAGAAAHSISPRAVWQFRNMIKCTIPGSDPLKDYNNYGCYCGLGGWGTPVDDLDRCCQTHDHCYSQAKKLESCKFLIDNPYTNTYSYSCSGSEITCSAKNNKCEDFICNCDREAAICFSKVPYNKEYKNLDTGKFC

For `CCc1c(C(=O)C(N)=O)c2c(OCC(=O)O)cc(C)cc2n1Cc1ccccc1`, the IC50 (Phospholipase A2 [1]) was 0.8 µM, the IC50 (Phospholipase A2 [2]) was 0.2 µM and the IC50 [3] was 0.125 µM. The IC50 [4] was 0.05 µM and the IC50 [5] was 0.075 µM.

Compound `Cc1cc(OCC(=O)O)c2c(C(=O)C(N)=O)c(C)n(Cc3ccccc3)c2c1` has an IC50 [6] of 2.2 µM, an IC50 [7] of 2.5 µM and an IC50 (Phospholipase A2 [1]) of 2 µM. The IC50 (Phospholipase A2 [2]) was 2 µM, the IC50 [3] was 0.3 µM and the IC50 [8] was 0.125 µM. The IC50 [4] was 0.125 µM, the IC50 [5] was 0.4 µM and the IC50 (Phospholipase A2 group V [9]) was 0.8 µM. For the same compound, the IC50 (Phospholipase A2 group V [10]) was 0.85 µM.

`Cc1c(C(=O)C(N)=O)c2c(OCC(=O)O)cccc2n1Cc1ccccc1` was tested, and the IC50 [6] was 2 µM, the IC50 [7] was 2.5 µM and the IC50 (Phospholipase A2 [1]) was 2.5 µM. The IC50 (Phospholipase A2 [2]) was 2.2 µM, the IC50 [3] was 0.275 µM and the IC50 [8] was 0.125 µM. For the same compound, the IC50 [4] was 0.075 µM, the IC50 [5] was 0.4 µM and the IC50 (Phospholipase A2 group V [9]) was 0.8 µM. The IC50 (Phospholipase A2 group V [10]) was 1 µM.

`CCc1c(C(=O)C(N)=O)c2c(OCC(=O)O)cccc2n1Cc1ccccc1` [VARESPLADIB] showed an IC50 [7] of 0.075 µM, an IC50 (Phospholipase A2 [1]) of 0.75 µM and an IC50 (Phospholipase A2 [2]) of 0.14 µM. For the same compound, the IC50 [8] was 0.07 µM, the IC50 [4] was 0.05 µM and the IC50 [5] was 0.075 µM. The IC50 (Phospholipase A2 group V [9]) was 0.5 µM and the IC50 (Phospholipase A2 group V [10]) was 0.75 µM.
